# Measurements as given in ChEMBL document CHEMBL1141624, “Discovery of small molecule benzimidazole antagonists of the chemokine receptor CXCR3” (Bioorg Med Chem Lett, 2008).
# Legend:
# [1] = target: T1, C-X-C chemokine receptor type 3 (Homo sapiens, UniProt P49682); assay: Antagonist activity at human CXCR3 expressed in CHO cells by FLIPR-based calcium mobilization assay; assay type: functional, cell-based
# T1 sequence (P49682 whole entry): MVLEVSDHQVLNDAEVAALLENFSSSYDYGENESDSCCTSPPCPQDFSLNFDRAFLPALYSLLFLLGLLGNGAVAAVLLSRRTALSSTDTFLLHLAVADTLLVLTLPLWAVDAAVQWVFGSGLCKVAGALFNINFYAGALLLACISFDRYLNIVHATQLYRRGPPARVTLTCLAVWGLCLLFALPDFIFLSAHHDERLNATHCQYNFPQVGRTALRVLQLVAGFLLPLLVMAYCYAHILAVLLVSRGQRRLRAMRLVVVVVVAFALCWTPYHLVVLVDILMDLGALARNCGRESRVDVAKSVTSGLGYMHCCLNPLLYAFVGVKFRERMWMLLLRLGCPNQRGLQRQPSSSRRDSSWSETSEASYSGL
# [2] = target: T1, C-X-C chemokine receptor type 3; assay: Displacement of [125]CXCL10 from human CXCR3 expressed in CHO cells; assay type: cell-based
# [3] = Aqueous solubility of the compound; assay type: physicochemical; conditions: buffer
# [4] = Half life in SJL mouse at 20 mg/kg, po; assay type: ADME, organism-based; parameters: dose 20 mg/kg, route oral; conditions: in vivo
# [5] = tested on: Liver microsomes; assay: Stability in rat liver microsome; assay type: ADME
# [6] = Protein binding in rat plasma; assay type: ADME, cell-free; conditions: read-out: PPB (converted)
# [7] = Bioavailability in SJL mouse at 20 mg/kg, po; assay type: ADME, organism-based; conditions: in vivo
# [8] = Clearance in SJL mouse at 10 mg/kg, po and 5 mg/kg, iv; assay type: ADME, organism-based; conditions: in vivo
Compound,IC50 [2] [µM],other results
CCc1cccc2c1n(C)c(=N)n2CC(=O)c1ccc(Cl)cc1,0.03,IC50 [1]: 0.07 µM
COc1cccc2c1n(C)c(=N)n2CC(=O)c1ccc(Br)cc1,0.8,–
Cn1c(=N)n(CC(=O)c2ccc(Cl)c(Cl)c2)c2ccccc21,4,–
CC(=O)c1nc2ccccc2n1CC(=O)c1ccc(Br)cc1,2,–
COCC/N=c1/n(C)c2ccccc2n1CC(=O)c1ccc(Br)cc1,1,–
CC(=O)c1nc2ccccc2n1CC(=O)c1ccc([N+](=O)[O-])cc1,3,solubility [3]: 4.5 µM
Cc1ccc2c(c1)n(C)c(=N)n2CC(=O)c1ccc(Cl)cc1,1,IC50 [1]: 5 µM
CC(O)c1nc2ccccc2n1CC(=O)c1ccc([N+](=O)[O-])cc1 (stereo not given),20,–
CC(=O)c1nc2ccc(-c3ccccc3)cc2n1CC(=O)c1ccc(Br)cc1,> 50,–
COc1cccc2c1nc(C(C)=O)n2CC(=O)c1ccc(Br)cc1,3,–
Cn1c(=N)n(CC(O)c2ccc(Br)cc2)c2ccccc21 (stereo not given),40,–
C/N=c1/n(C)c2ccccc2n1CC(=O)c1ccc(Cl)cc1,0.8,–
Cn1c(=N)n(CC(=O)c2ccc(Cl)cc2)c2cccc(Cl)c21,0.3,–
Cn1c(=N)n(CC(=O)c2ccc(Cl)cc2)c2cccc(C(F)(F)F)c21,0.7,–
CCCc1cccc2c1n(C)c(=N)n2CC(=O)c1ccc(Cl)cc1,0.5,IC50 [1]: 0.4 µM
CC(=O)c1nc2cc(-c3ccccc3)ccc2n1CC(=O)c1ccc(Br)cc1,> 50,–

Compound,IC50 [2] [µM],other results
Cn1c(=N)n(CC(=O)c2cccc(Cl)c2)c2ccccc21,16,–
Cn1c(=N)n(CCCC(=O)c2ccc(Br)cc2)c2ccccc21,6,–
Cn1c(=N)n(CC(=O)c2ccc(Cl)cc2)c2ccccc21,0.8,IC50 [1]: 9 µM; solubility [3]: 84 µM
Cn1c(=N)n(CCc2ccc(Br)cc2)c2ccccc21,11,–
CC(=O)c1nc2ccccc2n1CC(=O)c1ccccc1,> 100,–
CC(=O)/N=c1/n(C)c2ccccc2n1CC(=O)c1ccc([N+](=O)[O-])cc1,50,–
Cn1c(=N)n(CC(=O)c2ccccc2Cl)c2ccccc21,22,–
COc1ccc2nc(C(C)=O)n(CC(=O)c3ccc(Br)cc3)c2c1,> 50,–
C[S+]([O-])c1nc2ccccc2n1CC(=O)c1ccc([N+](=O)[O-])cc1 (stereo not given),11,–
CC(=O)c1nc2ccccc2n1CC(=O)c1ccc(Cl)cc1,8,–
COc1ccc2c(c1)nc(C(C)=O)n2CC(=O)c1ccc(Br)cc1,> 50,–
CC(=O)c1nc2ccccc2n1CC(=O)c1ccc(C#N)cc1,> 100,–
Cn1c(=N)n(C[S+]([O-])c2ccc(Cl)cc2)c2ccccc21 (stereo not given),3,–
Cn1c(=N)n(CC(=O)c2ccc(Br)cc2)c2ccccc21,0.8,–
Cc1ccc2c(c1)n(CC(=O)c1ccc(Cl)cc1)c(=N)n2C,8,–
Cc1cccc2c1n(C)c(=N)n2CC(=O)c1ccc(Cl)cc1,0.1,IC50 [1]: 0.08 µM; half-life [4]: 4.9 h; Stability [5]: 49%; solubility [3]: 79 µM; fraction unbound [6]: 0.15; bioavailability [7]: 57%; clearance [8]: 95 mL/min/kg
